Columns and labels:
[1] = target: HIV reverse transcriptase (Human immunodeficiency virus type 1 group M subtype B, UniProt P03366); assay: Inhibitory activity on HIV reverse transcriptase; type: biochemical; details: compared with inhibitory activity on rat pol. β
Experimental: The confirmation of the inhibitory activity of nervonic acid on HIV reverse transcriptase was carried out.
Specifically, the inhibitory activity of nervonic acid on HIV reverse transcriptase was measured according to the method described in reference 8 listed below.

[2] = target: rat pol. β (Rattus norvegicus, UniProt P06766); assay: Inhibitory activity on rat pol. β ([3H]-dTTP incorporation, poly(dA)/oligo(dT)12-18); type: biochemical; details: compared among fatty acids
Experimental: The activity of rat pol. β was measured according to the method described in reference 3 listed below, by using poly(dA)/oligo(dT)12-18 (template DNA) and [^3H]-dTTP (nucleotide) as substrates and measuring radiation of [^3H]-dTTP incorporated in the presence of nervonic acid of different concentrations.
FIG. 5 is a graph showing an inhibition curve. In FIG. 5, the vertical axis represents the activity of rat pol. β and the horizontal axis represents the concentration of nervonic acid.

[3] = test system: DNA polymerase; details: reported by Ogawa et al., Jpn. J. Cancer Res. 89, 1154-1159, 1998; cited from earlier work

SMILES	inhibitory activity on HIV reverse transcriptase (inhibition curve, FIG. 15) [1]	inhibition of rat pol. β [2]	inhibitor on DNA polymerase [3]
CCCCCCCC/C=C\CCCCCCCCCCCCCC(=O)O [nervonic acid, cis-15-tetracosenoic acid]	substantially equal to the inhibitory activity of nervonic acid on rat pol. β	one of the fatty acids which most strongly inhibit rat pol. β	–
C[C@H](CCC(=O)O)[C@H]1CC[C@H]2[C@@H]3CC[C@@H]4C[C@H](O)CC[C@]4(C)[C@H]3CC[C@]12C [lithocholic acid, 3-α-hydroxy-5β-cholanoic acid]	–	–	known as inhibitors on DNA polymerase

Reference: patent US20040093169A1, “Method of designing molecular structure of enzyme inhibitor” (TOYO SUISAN KAISHA, LTD., priority 2000, published 2004)
